The NIST ThermoML archive (doi:10.1021/acs.jced.5b00903)

Test: xn = mol fraction of the nth substance listed
Conditions: surface light scattering

CC(C)CC(C)(C)C [2,2,4-trimethylpentane] + CCO
surface tension liquid-gas [mN/m]
Conditions	x1 = 0.0429	x1 = 0.0916	x1 = 0.1474	x1 = 0.2119	x1 = 0.2874	x1 = 0.3769	x1 = 0.4848	x1 = 0.6173	x1 = 0.784	x1 = 1
288.15 K	22.27	21.88	21.47	21.11	20.74	20.4	20.03	19.75	19.5	19.14
298.15 K	21.38	20.96	20.54	20.17	19.8	19.46	19.09	18.83	18.62	18.3
308.15 K	20.54	20.11	19.66	19.28	18.9	18.55	18.17	17.92	17.73	17.43
318.15 K	19.77	19.31	18.85	18.45	18.05	17.7	17.31	17.05	16.86	16.56

CC(C)CC(C)(C)C [2,2,4-trimethylpentane] + CCCO
surface tension liquid-gas [mN/m]
Conditions	x1 = 0.1	x1 = 0.2	x1 = 0.3	x1 = 0.4	x1 = 0.4999	x1 = 0.5996	x1 = 0.6998	x1 = 0.7995	x1 = 0.9	x1 = 1
298.15 K	22.09	21.18	20.58	20.05	19.57	19.22	18.96	18.69	18.51	18.3
303.15 K	21.65	20.73	20.12	19.6	19.12	18.77	18.53	18.26	18.09	17.9
308.15 K	21.23	20.28	19.66	19.12	18.64	18.29	18.05	17.78	17.62	17.43
313.15 K	20.77	19.81	19.19	18.66	18.19	17.85	17.63	17.39	17.25	17.09
318.15 K	20.31	19.31	18.67	18.13	17.65	17.31	17.09	16.85	16.72	16.56
323.15 K	19.84	18.82	18.18	17.64	17.17	16.84	16.65	16.43	16.33	16.2
